# Experimental data: article PMC8673317 (Journal of medicinal chemistry, 2021)
# “Also recorded” adds a separate entry of the source. Counter-ions that a name gives are not always drawn.
# Columns and labels:
# C57BL/6J mice [1] = assay: Lethality; type: in vivo, mouse
# BB3 = molecular target: T1, BB3 (Homo sapiens, UniProt P32247); assay: PRESTO-Tango concentration-response; type: cell-based
# T1 sequence (P32247 1-399): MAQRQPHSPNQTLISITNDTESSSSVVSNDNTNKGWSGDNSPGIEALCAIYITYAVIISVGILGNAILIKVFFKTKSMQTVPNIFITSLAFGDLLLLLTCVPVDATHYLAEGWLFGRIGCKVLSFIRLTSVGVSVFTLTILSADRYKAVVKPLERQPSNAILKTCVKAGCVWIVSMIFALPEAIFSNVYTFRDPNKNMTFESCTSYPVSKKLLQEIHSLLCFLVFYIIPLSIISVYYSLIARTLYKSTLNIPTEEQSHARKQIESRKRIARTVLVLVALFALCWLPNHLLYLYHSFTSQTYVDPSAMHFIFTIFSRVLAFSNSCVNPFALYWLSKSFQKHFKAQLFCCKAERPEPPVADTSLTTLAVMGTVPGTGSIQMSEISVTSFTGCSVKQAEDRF
# CCR3 = molecular target: T2, CCR3 (Homo sapiens, UniProt P51677); assay: PRESTO-Tango concentration-response; type: cell-based
# T2 sequence (P51677 1-355): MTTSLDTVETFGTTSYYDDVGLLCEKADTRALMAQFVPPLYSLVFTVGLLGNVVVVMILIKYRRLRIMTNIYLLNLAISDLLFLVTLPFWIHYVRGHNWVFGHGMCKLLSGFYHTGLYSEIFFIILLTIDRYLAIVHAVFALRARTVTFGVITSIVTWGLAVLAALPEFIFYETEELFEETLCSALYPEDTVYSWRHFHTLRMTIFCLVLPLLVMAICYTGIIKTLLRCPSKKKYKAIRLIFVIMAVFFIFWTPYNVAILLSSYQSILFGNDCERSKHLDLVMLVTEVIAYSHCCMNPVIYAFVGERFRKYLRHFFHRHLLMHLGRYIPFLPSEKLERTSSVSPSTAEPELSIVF
# [2] = system: 318 non-olfactory GPCRs (opioid receptors); assay: PRESTO-Tango GPCRome β-arrestin2 recruitment screen; type: cell-based, human; conditions: 10 μM
# 129Sv6 mice [3] = assay: Radiant heat tail flick antinociception; type: in vivo, mouse; conditions: for opioid receptor dependence of antinociception (MOR, DOR, KOR KO mice): 129Sv6 (and C57BL/6J) KO mice, KAE 100 mg/kg po in 129Sv6; for effect of naloxone on antinociception: naloxone 1 mg/kg sc 15 min before drug; for antinociceptive activity in the tail-flick assay at doses as high as 100 mg/kg: alkaloid 2 po and sc, 9OH sc
# MOR KO mice [4] = assay: Lethality; type: in vivo, mouse
# mMOR [5] = molecular target: T3, mMOR (Mus musculus, UniProt P42866); assay: [35S]GTPγS functional assay in membranes of transfected cells; conditions: read-out: [35S]GTPγS mMOR %Emax
# CXCR7 = CXCR7 (Homo sapiens, UniProt P25106); assay: PRESTO-Tango concentration-response; type: cell-based
# mDOR = mDOR (Mus musculus, UniProt P32300); assay: [35S]GTPγS functional assay in membranes of transfected cells; conditions: antagonism of 100 nM agonist
# MOR KO mice [6] = assay: Antagonism of icv KOR/DOR agonist antinociception; type: in vivo, mouse; conditions: MP 30 mg/kg sc
# mMOR [7] = molecular target: T3, mMOR; conditions: read-out: [35S]GTPγS mMOR EC50; agonist stimulation, ± SEM; cited from earlier work
# C57BL/6J mice [8] = assay: 55 °C warm-water tail-withdrawal; type: in vivo, mouse
# mKOR [9] = molecular target: T4, mKOR (Mus musculus, UniProt P33534); conditions: agonist stimulation, ± SEM; cited from earlier work
# C57BL/6J mice [10] = conditions: MP 0.76, 1.5, 4 mg/kg sc; Figure 2L reprinted; listed as MP; cited from earlier work
# [11] = Pharmacokinetic study, plasma and brain levels by LC-MS/MS
# [12] = as above; remark: listed apart in the source
# 129Sv6 mice [13] = assay: Lethality; type: in vivo, mouse; conditions: from rodent oral LD50
# Lethality = type: in vivo, mouse; conditions: 129Sv6, mouse, in vivo, po
# [14] = Stability in pH 7.4 buffer; type: physicochemical
# C57BL/6J mice [15] = assay: Conditioned place preference and aversion; type: in vivo, mouse; conditions: alkaloid extract 100 mg/kg/d po, mitragynine 30 mg/kg/d po, 7OH 1 mg/kg/d sc
# rats = conditions: intravenous (iv) route; cited from earlier work
# C57BL/6J mice [16] = assay: Locomotor; type: in vivo, mouse; conditions: KAE 45 mg/kg po, mitragynine 20 mg/kg po, 7OH 1 mg/kg sc, MP […] sc
# mice = conditions: po; cited from earlier work
# [17] = pH 7.4
# CD1 mice = conditions: cited from earlier work
# humans = conditions: cited from earlier work
# mKOR [18] = molecular target: T4, mKOR; assay: [35S]GTPγS functional assay in membranes of transfected cells; conditions: relative to U50, 488H
# [19] = C57BL/6J, mitragynine 30 mg/kg po
# T4 sequence (P33534 whole entry): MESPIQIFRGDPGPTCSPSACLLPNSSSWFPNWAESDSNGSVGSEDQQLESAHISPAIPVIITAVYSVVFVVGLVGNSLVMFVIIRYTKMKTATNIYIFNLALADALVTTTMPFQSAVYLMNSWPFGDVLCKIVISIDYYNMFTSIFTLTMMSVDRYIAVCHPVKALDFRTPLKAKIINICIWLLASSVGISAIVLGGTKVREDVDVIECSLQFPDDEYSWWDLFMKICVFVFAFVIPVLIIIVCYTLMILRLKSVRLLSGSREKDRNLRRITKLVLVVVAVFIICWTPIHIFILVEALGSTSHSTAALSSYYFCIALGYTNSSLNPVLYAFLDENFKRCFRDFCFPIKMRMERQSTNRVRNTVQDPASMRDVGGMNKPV
# T3 sequence (P42866 whole entry): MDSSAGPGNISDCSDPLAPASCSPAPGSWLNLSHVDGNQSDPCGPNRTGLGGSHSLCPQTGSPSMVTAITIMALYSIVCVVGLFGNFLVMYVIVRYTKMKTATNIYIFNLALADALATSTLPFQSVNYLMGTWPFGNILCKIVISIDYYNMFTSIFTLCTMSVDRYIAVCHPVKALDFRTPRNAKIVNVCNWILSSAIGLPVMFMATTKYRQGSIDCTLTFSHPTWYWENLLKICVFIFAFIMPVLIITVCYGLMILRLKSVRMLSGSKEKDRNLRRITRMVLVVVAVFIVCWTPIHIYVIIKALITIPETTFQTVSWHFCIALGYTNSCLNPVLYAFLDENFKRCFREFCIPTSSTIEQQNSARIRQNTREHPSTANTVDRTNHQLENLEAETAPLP
# Chain of mDOR (P32300 whole entry): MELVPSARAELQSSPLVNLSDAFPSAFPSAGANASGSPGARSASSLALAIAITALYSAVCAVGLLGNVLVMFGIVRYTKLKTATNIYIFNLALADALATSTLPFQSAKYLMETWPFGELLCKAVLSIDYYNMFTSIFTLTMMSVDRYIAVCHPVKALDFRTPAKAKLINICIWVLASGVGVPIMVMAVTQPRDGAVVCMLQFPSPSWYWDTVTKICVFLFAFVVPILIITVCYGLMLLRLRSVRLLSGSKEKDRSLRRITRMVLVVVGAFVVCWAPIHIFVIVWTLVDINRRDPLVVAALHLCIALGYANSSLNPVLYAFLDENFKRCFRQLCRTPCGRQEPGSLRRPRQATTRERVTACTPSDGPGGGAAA
# Chain of CXCR7 (P25106 whole entry): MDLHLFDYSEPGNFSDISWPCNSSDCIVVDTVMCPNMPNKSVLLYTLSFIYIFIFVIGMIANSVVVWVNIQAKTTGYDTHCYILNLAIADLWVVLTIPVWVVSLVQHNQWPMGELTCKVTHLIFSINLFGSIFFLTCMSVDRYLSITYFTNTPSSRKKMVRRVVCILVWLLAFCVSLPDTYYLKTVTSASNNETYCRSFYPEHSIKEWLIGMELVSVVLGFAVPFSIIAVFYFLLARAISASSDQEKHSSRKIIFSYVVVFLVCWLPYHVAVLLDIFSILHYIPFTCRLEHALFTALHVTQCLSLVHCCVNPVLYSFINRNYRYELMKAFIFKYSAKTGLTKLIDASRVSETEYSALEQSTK
structure (smiles),measurement,setting,value
"CC[C@@H]1C[N+]2=C(C[C@@H]1/C(=C\OC)C(=O)OC)c1[nH]c3cccc(OC)c3c1CC2 [3-dehydromitragynine, (2S,3S)-2-((E)-1,3-Dimethoxy-3-oxoprop-1-en-2-yl)-3-ethyl-8-methoxy-2,3,4,6,7,12-hexahydro-1H-indolo[2,3-a]quinolizin-5-ium TFA Salt]",lethality,"C57BL/6J mice [1]; 50 mg/kg, sc",100%
same,lethality in the presence of KOR antagonist (nor-BNI) and DOR antagonist (NTI),"C57BL/6J mice [1]; 3DM 50 mg/kg sc, norBNI 10 mg/kg sc 24 h, NTI 20 mg/kg sc 15 min pretreatment",lethality was still observed
same,activity at BB3 (in words),BB3,Poor (μM) activity
same,activity at CCR3 (in words),CCR3,Poor (μM) activity
same,"increase in luminescence signal, fold of basal, at opioid receptors",[2],> 3 fold of basal
same,off-target activity (in words),[2]; Table 1 and Figure 6B,no other notable off–target activity beyond opioid receptors
same,antinociception in mice (in words),129Sv6 mice [3]; administered directly,not antinociceptive
same,lethality,"MOR KO mice [4]; 50 mg/kg, sc",100%
same,Emax,mMOR [5],44 ± 1%
same,activity at CXCR7 (in words),CXCR7,Poor (μM) activity
"CC[C@@H]1CN2CCc3c([nH]c4cccc(O[C@@H]5O[C@H](C(=O)O)[C@@H](O)[C@H](O)[C@H]5O)c34)[C@@H]2C[C@@H]1/C(=C\OC)C(=O)OC [9-glucuronoyl mitragynine, (2S,3S,5R,6S)-6-(((2S,3S)-2-((E)-1,3-Dimethoxy-3-oxoprop-1-en-2-yl)-3-ethyl-1,2,3,4,6,7,12,12b-octahydroindolo[2,3-a]quinolizin-8-yl)oxy)-3,4,5-trihydroxytetrahydro-2H-pyran-2-carboxylic Acid]",[35S]GTPγS mDOR IC50,mDOR,no activity
"CC[C@@H]1CN2CCc3c([nH]c4cccc(O)c34)[C@@H]2C[C@@H]1/C(=C\OC)C(=O)OC [9-hydroxy corynanthedine, 9-hydroxycorynantheidine]",[35S]GTPγS mDOR IC50,mDOR,no activity
CC[C@@H]1CN2CC[C@]3(Nc4cccc(OC)c4C3=O)[C@@H]2C[C@@H]1/C(=C\OC)C(=O)OC [mitragynine pseudoindoxyl],antagonism of icv SNC 80 antinociception,MOR KO mice [6]; SNC 80 100 nmol icv,antagonized
same,"antagonism of icv U50, 488H antinociception","MOR KO mice [6]; U50, 488H 100 nmol icv",antagonized
same,EC50,mMOR [7],1.66 ± 0.1 nM
same,antinociceptive potency over sc morphine,"C57BL/6J mice [8]; C57BL/6J, sc",about 10 fold
same,ED50,"C57BL/6J mice [8]; Mus musculus, sc, read-out: antinociceptive ED50 (95% CI), sc",0.26 mg/kg
same,antinociceptive potency relative to morphine,"C57BL/6J mice [8]; sc, C57BL/6J and 129Sv6 strains",2–10 fold
same,[35S]GTPγS mKOR EC50,mKOR [9],no activity
same,"opioid receptor dependence of antinociception (MOR, DOR, KOR KO mice)",129Sv6 mice [3],"mediated through MOR, independent of DOR/KOR"
same,more antinociceptive potency than mitragynine (sc),"129Sv6 mice [3]; 129Sv6 mice, sc",> 100 fold
same,effect of naloxone on antinociception,129Sv6 mice [3],naloxone-sensitive
same,inhibition of GI transit (in words),C57BL/6J mice [10],showed constipation at all doses
same,level in plasma and brain at 8 h,[11]; [19],no quantifiable
same,concentration at 20 min,"[11]; C57BL/6J, mouse, plasma, sc",0.41 ± 0.12 µM
CC[C@@H]1CN2CCc3c([nH]c4cccc(OC)c34)[C@@H]2C[C@@H]1/C(=C\OC)C(=O)OC [mitragynine],brain concentration of intact mitragynine,"[12]; 129Sv6, po, ED80 dose (10 mg/kg)",12.22 ± 3.4 µM
same,brain concentration,"[12]; 129Sv6, sc 10 mg/kg",30.06 ± 8.12 µM
same,"oral LD50 corrected by standard allometric scaling, amount in an adult human",129Sv6 mice [13],> 2.5 g
same,LD50,Lethality,750 mg/kg
same,lethality,"C57BL/6J mice [1]; 1 g/kg, po, data not shown",100%
same,time to peak antinociceptive effect,"C57BL/6J mice [8]; both strains (C57BL/6J, 129Sv6), po and sc",15 to 20 min
same,stability in D2O,"[14]; 1H NMR at 1, 5, 10, 24 h, room temperature",stable
same,stability in pH 7.4 buffer,"[14]; LC/MS at 1, 5, 10 and 24 h",very stable
same,conditioned place preference (CPP/CPA),C57BL/6J mice [15],displayed CPP; also recorded: produced reward behavior
same,self-administration,rats,not self-administered
same,hyperlocomotion compared to morphine,C57BL/6J mice [16],attenuated
same,[35S]GTPγS mKOR EC50,mKOR [9],no activity
same,"opioid receptor dependence of antinociception (MOR, DOR, KOR KO mice)",129Sv6 mice [3],mediated by MOR (but not DOR and KOR)
same,effect of naloxone on antinociception,129Sv6 mice [3],reversed
same,level in plasma and brain at 24 h,[11]; [19],below detection limits
same,brain concentration of intact mitragynine,"[11]; C57BL/6J, po, ED80 dose (30 mg/kg)",6.63 ± 0.67 µM
same,brain concentration,"[11]; C57BL/6J, sc 30 mg/kg",9.74 ± 3.05 µM
same,brain concentration greater than MOR agonist potency,"[11]; po ED80 dose, C57BL/6J and 129Sv6",30-to-60 fold
same,reported LD50,mice,477 mg/kg
same,lethality (in words),"MOR KO mice [4]; 1 g/kg po, C57BL/6J or MOR KO mice",death of all animals
same,increase of half-life in microsomes in the presence of ketoconazole,[17],~ 5 fold
CN1CC[C@]23c4c5ccc(O)c4O[C@H]2[C@@H](O)C=C[C@H]3[C@H]1C5 [morphine],antinociceptive ED50,CD1 mice,5 mg/kg
same,potency intravenously versus orally,humans,~ 3 fold
same,"antinociceptive ED50 (95% CI), po","129Sv6 mice [3]; 129Sv6 mice, po, at peak effect",3.32 (2.08–5.32) mg/kg
"C=C[C@H]1CN2CCc3c([nH]c4cccc(OC)c34)[C@@H]2C[C@@H]1/C(=C\OC)C(=O)OC [paynanthine, paynantheine]",antinociceptive activity in the tail-flick assay at doses as high as 100 mg/kg,129Sv6 mice [3]; 129Sv6 mice,inactive
CC[C@H]1CN2CCc3c([nH]c4cccc(OC)c34)[C@@H]2C[C@@H]1/C(=C\OC)C(=O)OC [speciogynine],[35S]GTPγS mKOR %Emax,mKOR [18],no activity
same,antinociceptive activity in the tail-flick assay at doses as high as 100 mg/kg,129Sv6 mice [3]; 129Sv6 mice,inactive
